The text below walks through data of patent US20260138976A1 (Hoffmann-La Roche Inc., priority 2022, published 2026).

SMILES strings stand for the structures.

In test [1] the test system is primary human T-cells. Put plainly: IL2 secretion measurements (24 h, CD3-stimulated T-cells, PBS counter screen). As to conditions: for Emax IL2 (% activation): CD3 condition, normalised to DMSO (neutral) and 20 μM reference compound A1 = 100%; for EC50: Homo sapiens, T-cell, CD3-stimulated primary human T-cells, IL2 secretion, fitted sigmoidal curve, read-out: Tcell IL2 CD3 EC50. Format: cell-based. The gist of the method: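 Expanded primary human T-cells (100k/well) were plated on anti-CD3-coated or PBS-only plates with compound in a 5–6 point dose response (top 20 or 10 μM final, 3.333-fold, 0.2% DMSO). IL-2 in 24 h supernatants was quantified by ProQuantum immunoassay or ELISA. Values were normalized to DMSO and 20 μM reference compound A1 (100%), giving EC50 and Emax.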

Test [2] deals with primary human T-cells. Put plainly: Proliferation assay (5 days, CellTiter-Glo, CD3-stimulated T-cells). The format is cell-based. To be noted: for Emax proliferation (% activation): CD3 condition, normalised to DMSO (neutral) and 20 μM reference compound A1 = 100%; for EC50: Homo sapiens, T-cell, 120 h, CD3-stimulated primary human T-cells, 5 days, CellTiter-Glo, fitted sigmoidal curve, read-out: Tcell Proliferation CD3 EC50. In a few lines: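 Expanded primary human T-cells, 100 k cells/well, were stimulated with plate-coated CD3 antibody (donor-titrated) and given compound in a 5 or 6 pt dose response from 20 μM or 10 μM final top, 0.2% DMSO final. ATP was read by CellTiter-Glo after 5 days. EC50 and Emax were reported as % of 20 μM reference compound A1.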
In general terms: Cellular ATP, detected with luciferase, serves as a proxy for viable cell number.

For the compound `N[C@H]1CS(=O)(=O)c2cc(F)c(-c3noc(N4CCOC5(CC5)C4)n3)cc2N(Cc2ccc(-c3ccc(C(F)(F)F)cc3)nc2)C1=O` [Example 11, (3R)-3-amino-8-fluoro-7-[5-(4-oxa-7-azaspiro[2.5]octan-7-yl)-1,2,4-oxadiazol-3-yl]-1,1-dioxo-5-[[6-[4-(trifluoromethyl)phenyl]-3-pyridyl]methyl]-2,3-dihydro-1λ^6,5-benzothiazepin-4-one], in the test on primary human T-cells [1], the “Emax IL2 (% activation)” value is on record as 64 % activation and the EC50 was found to be 7700 nM. In addition, in the test on primary human T-cells [2], the “Emax proliferation (% activation)” value was determined as 136 % activation and the EC50 was found to be 1870 nM.
`CC(C)(c1nnc(-c2ccc3c(c2)N(Cc2ccc(-c4ccc(OC(F)(F)F)cn4)cc2)C(=O)[C@@H](N)CS3(=O)=O)o1)C(F)(F)F` [Example 165, (3R)-3-amino-1,1-dioxo-7-[5-(2,2,2-trifluoro-1,1-dimethyl-ethyl)-1,3,4-oxadiazol-2-yl]-5-[[4-[5-(trifluoromethoxy)-2-pyridyl]phenyl]methyl]-2,3-dihydro-1λ^6,5-benzothiazepin-4-one]: in the test on primary human T-cells [1], the “Emax IL2 (% activation)” value worked out at 123 % activation and the EC50 worked out at 1330 nM. Besides, in the test on primary human T-cells [2], the “Emax proliferation (% activation)” value is on record as 139 % activation and the EC50 stood at 153 nM.
Regarding `CCC(O)(c1nnc(-c2ccc3c(c2)N(Cc2ccc(-c4noc(C(F)(F)F)n4)cc2)C(=O)[C@@H](N)CS3(=O)=O)o1)C(F)(F)F` (some centres unmarked) [Example 95], in the test on primary human T-cells [1], the “Emax IL2 (% activation)” value is recorded as 172 % activation and the EC50 is 808 nM. For the same compound, in the test on primary human T-cells [2], the “Emax proliferation (% activation)” value turned out to be 104 % activation and the EC50 worked out at 1640 nM.
Consider `N[C@H]1CS(=O)(=O)c2cc(F)c(-c3noc(N4CCOC(F)(F)C4)n3)cc2N(Cc2ccc(-c3noc(C(F)(F)F)n3)nc2)C1=O` [Example 12, (3R)-3-amino-7-[5-(2,2-difluoromorpholin-4-yl)-1,2,4-oxadiazol-3-yl]-8-fluoro-1,1-dioxo-5-[[6-[5-(trifluoromethyl)-1,2,4-oxadiazol-3-yl]-3-pyridyl]methyl]-2,3-dihydro-1λ^6,5-benzothiazepin-4-one], for which, in the test on primary human T-cells [1], the “Emax IL2 (% activation)” value was 167 % activation and the EC50 is 3050 nM. In addition, in the test with primary human T-cells [2], the “Emax proliferation (% activation)” value is 125 % activation and the EC50 was found to be 3880 nM.
Regarding `N[C@H]1CS(=O)(=O)c2ccc(-c3nnc(C(N)(C4CC4)C(F)(F)F)o3)cc2N(Cc2ccc(-c3noc(C4CC4)n3)cc2)C1=O` (some centres unmarked) [Example 171], in the test with primary human T-cells [1], the “Emax IL2 (% activation)” value is 122 % activation and the EC50 amounted to 3780 nM. In the test with primary human T-cells [2], the “Emax proliferation (% activation)” value is given as 109 % activation and the EC50 turned out to be 1520 nM.
In the same order, the values of `CC(O)(c1nnc(-c2ccc3c(c2)N(Cc2ccc(-c4noc(C(F)(F)F)n4)cc2)C(=O)[C@@H](N)CS3(=O)=O)o1)C(F)(F)F` (stereo partly drawn) [Example 96, (3R)-3-amino-1,1-dioxo-7-[5-(2,2,2-trifluoro-1-hydroxy-1-methyl-ethyl)-1,3,4-oxadiazol-2-yl]-5-[[4-[5-(trifluoromethyl)-1,2,4-oxadiazol-3-yl]phenyl]methyl]-2,3-dihydro-1λ^6,5-benzothiazepin-4-one] are 232 % activation, 1360 nM, 103 % activation and 174 nM.
The matching figures for `CC(C)(C#N)c1nnc(-c2ccc3c(c2)N(Cc2ccc(-c4cnn(C(F)(F)F)c4)cc2)C(=O)[C@@H](N)CS3(=O)=O)o1` [Example 115, 2-[5-[(3R)-3-amino-1,1,4-trioxo-5-[[4-[1-(trifluoromethyl)pyrazol-4-yl]phenyl]methyl]-2,3-dihydro-1λ^6,5-benzothiazepin-7-yl]-1,3,4-oxadiazol-2-yl]-2-methyl-propanenitrile]: 112 % activation, 507 nM, 140 % activation and 278 nM.
In the same order, the values of `N#CC1(c2nc(-c3cc4c(cc3F)S(=O)(=O)C[C@H](N)C(=O)N4Cc3ccc(-c4ccc(C(F)(F)F)cn4)cc3)no2)CC1` [Example 17] are 221 % activation, 1540 nM, 167 % activation and 50.1 nM.
Regarding `CC(C)(C#N)c1nnc(-c2ccc3c(c2)N(Cc2ccc(-c4cc(C(F)(F)F)ccn4)cc2)C(=O)[C@@H](N)CS3(=O)=O)o1` [Example 116, 2-[5-[(3R)-3-amino-1,1,4-trioxo-5-[[4-[4-(trifluoromethyl)-2-pyridyl]phenyl]methyl]-2,3-dihydro-1λ^6,5-benzothiazepin-7-yl]-1,3,4-oxadiazol-2-yl]-2-methyl-propanenitrile], in the test on primary human T-cells [1], the “Emax IL2 (% activation)” value turned out to be 87 % activation and the EC50 was 1030 nM. In the test with primary human T-cells [2], the “Emax proliferation (% activation)” value was found to be 97 % activation and the EC50 was 439 nM.
The matching figures for `CC(C)(C)c1nnc(-c2ccc3c(c2)N(Cc2ccc(-c4nnc(C(F)(F)F)o4)cc2)C(=O)[C@@H](N)CS3(=O)=O)o1` [Example 24, (3R)-3-amino-7-(5-tert-butyl-1,3,4-oxadiazol-2-yl)-1,1-dioxo-5-[[4-[5-(trifluoromethyl)-1,3,4-oxadiazol-2-yl]phenyl]methyl]-2,3-dihydro-1λ^6,5-benzothiazepin-4-one]: 131 % activation, 1060 nM, 142 % activation and 775 nM.
In the same order, the values of `N[C@H]1CS(=O)(=O)c2ccc(-c3nnc(C4(N)CCCCC4)o3)cc2N(Cc2ccc(-c3ccc(C(F)(F)F)cn3)cc2)C1=O` [Example 41, (3R)-3-amino-7-[5-(1-aminocyclohexyl)-1,3,4-oxadiazol-2-yl]-1,1-dioxo-5-[[4-[5-(trifluoromethyl)-2-pyridyl]phenyl]methyl]-2,3-dihydro-1λ^6,5-benzothiazepin-4-one] are 66 % activation, 3340 nM, 85 % activation and 902 nM.
Turning to `CC(C)(C#N)c1nnc(-c2ccc3c(c2)N(Cc2ccc(-n4cc(C(F)(F)F)cn4)cc2)C(=O)[C@@H](N)CS3(=O)=O)o1` [Example 102, 2-[5-[(3R)-3-amino-1,1,4-trioxo-5-[[4-[4-(trifluoromethyl)pyrazol-1-yl]phenyl]methyl]-2,3-dihydro-1λ^6,5-benzothiazepin-7-yl]-1,3,4-oxadiazol-2-yl]-2-methyl-propanenitrile], in the test with primary human T-cells [1], the “Emax IL2 (% activation)” value came out at 143 % activation and the EC50 was found to be 635 nM. In the test on primary human T-cells [2], the “Emax proliferation (% activation)” value was 127 % activation and the EC50 turned out to be 363 nM.
In the same order, the values of `COc1ccc(-c2ccc(CN3C(=O)[C@@H](N)CS(=O)(=O)c4ccc(-c5nnc(C6(F)CCCN(C)C6)o5)cc43)cc2)cc1` (stereo partly drawn) [Example 50, (3R)-3-amino-7-[5-(3-fluoro-1-methyl-3-piperidyl)-1,3,4-oxadiazol-2-yl]-5-[[4-(4-methoxyphenyl)phenyl]methyl]-1,1-dioxo-2,3-dihydro-1λ^6,5-benzothiazepin-4-one] are 119 % activation, 3600 nM, 219 % activation and 1040 nM.
Take `CC(C)(C#N)c1nnc(-c2ccc3c(c2)N(Cc2ccc(-c4ccc(C(F)(F)F)nc4)cc2)C(=O)[C@@H](N)CS3(=O)=O)o1` [Example 113, 2-[5-[(3R)-3-amino-1,1,4-trioxo-5-[[4-[6-(trifluoromethyl)-3-pyridyl]phenyl]methyl]-2,3-dihydro-1λ^6,5-benzothiazepin-7-yl]-1,3,4-oxadiazol-2-yl]-2-methyl-propanenitrile]: in the test with primary human T-cells [1], the “Emax IL2 (% activation)” value is listed as 85 % activation and the EC50 turned out to be 1320 nM. In the test with primary human T-cells [2], the “Emax proliferation (% activation)” value is 79 % activation and the EC50 came to 1060 nM.
Take `COC(=O)N1CC(c2nnc(-c3ccc4c(c3)N(Cc3ccc(-c5noc(C(C)(C)C)n5)cc3)C(=O)[C@@H](N)CS4(=O)=O)o2)CC(F)(F)C1` (stereo partly drawn) [Example 56, methyl 3,3-difluoro-5-[5-[(3R)-3-amino-5-[[4-(5-tert-butyl-1,2,4-oxadiazol-3-yl)phenyl]methyl]-1,1,4-trioxo-2,3-dihydro-1λ^6,5-benzothiazepin-7-yl]-1,3,4-oxadiazol-2-yl]piperidine-1-carboxylate]: in the test on primary human T-cells [1], the “Emax IL2 (% activation)” value worked out at 109 % activation and the EC50 was 940 nM. Moreover, in the test on primary human T-cells [2], the “Emax proliferation (% activation)” value is on record as 425 % activation and the EC50 amounted to 2210 nM.
Consider `N[C@H]1CS(=O)(=O)c2cc(F)c(-c3noc(C4(N)COC4)n3)cc2N(Cc2ccc(-c3ccc(C(F)(F)F)cn3)cc2)C1=O` [Example 10, (3R)-3-amino-7-[5-(3-aminooxetan-3-yl)-1,2,4-oxadiazol-3-yl]-8-fluoro-1,1-dioxo-5-[[4-[5-(trifluoromethyl)-2-pyridyl]phenyl]methyl]-2,3-dihydro-1λ^6,5-benzothiazepin-4-one], for which, in the test with primary human T-cells [1], the “Emax IL2 (% activation)” value was 123 % activation and the EC50 was 9430 nM. Also, in the test on primary human T-cells [2], the “Emax proliferation (% activation)” value is recorded as 133 % activation and the EC50 stood at 1920 nM.
With `CC(C)(C#N)c1nnc(-c2ccc3c(c2)N(Cc2ccc(-c4ncc(OC(F)(F)F)cn4)cc2)C(=O)[C@@H](N)CS3(=O)=O)o1` [Example 117], in the test on primary human T-cells [1], the “Emax IL2 (% activation)” value worked out at 114 % activation and the EC50 stood at 587 nM. Also, in the test on primary human T-cells [2], the “Emax proliferation (% activation)” value amounted to 136 % activation and the EC50 came to 174 nM.
